Source: patent US11602534B2, “Pyrimidine derivative kinase inhibitors” (HEFEI INSTITUTES OF PHYSICAL SCIENCE, CHINESE ACADEMY OF …, priority 2017, dated 2023)

Key:
Tel-cKit-BaF3 = assay: Proliferation of Tel-cKit-BaF3 cells, CCK8 cell viability assay; assay type: cell-based, mouse; details: Mus musculus; 72 hours, CCK8; stably expressing cKIT kinase
Excerpt: (§1) In this example the following cells were used: […] (purchased from ATCC), mouse P210-BaF3 (stably expressing BCR-ABL mutant activated kinase), mouse P210/T315I-BaF3 (stably expressing BCR-ABL/T315I mutant activated kinase), mouse FLT3-ITD-BaF3 (stably expressing FLT3/ITD mutant activated kinase), mouse TEL-FLT3-BaF3 (stably expressing FLT3 kinase), mouse TEL-cKIT-BaF3 (stably expressing cKIT kinase), mouse BaF3-tel/T670I-cKit (stably expressing cKIT/T670I mutant activated kinase), mouse Tel-VEGFR2-BaF3 (stably expressing VEGFR2 kinase), mouse Tel-PDGFRα-BaF3 (stably expressing PDGFRα kinase), mouse Tel-PDGFRβ-BaF3 (stably expressing PDGFRβ kinase), mouse Tel-RET-BaF3 (stably expressing RET kinase). The above cell lines were all constructed by our laboratory according to the following method: the kinase region sequences of human P210, P210/T315I, FLT3/ITD, FLT3, cKIT, cKIT/T670I, VEGFR2, PDGFRα, PDGFRβ, RET were respectively amplified by PCR, and inserted into MSCV-Puro vectors having N-terminal TEL or TPR fragments (Clontech). The vectors were stably transfected into mouse BaF3 cells by means of retrovirus, and the growth factor IL-3 were removed, eventually obtaining cell lines that depend on transferred protein P210, P210/T315I, FLT3/ITD, FLT3, cKIT, cKIT/T670I, VEGFR2, PDGFRα, PDGFRβ, or RET.
(§2) GI50 (unit: μM) was calculated by quantifying the number of living cells based on quantitative measurement of reductive dehydrogenase in living cells with CCK8 cell viability assay kit (Bestbio, China).

Tel-cKit/T670I-BaF3 = assay: Proliferation of Tel-cKit/T670I-BaF3 cells, CCK8 cell viability assay; assay type: cell-based; details: Mus musculus, 72 hours, stably expressing cKIT/T670I
Excerpt: as §1, §2

TEL-PDGFRβ-BaF3 = assay: Proliferation of TEL-PDGFRβ-BaF3 cells, CCK8 cell viability assay; assay type: cell-based; details: Mus musculus, 72 hours, stably expressing PDGFRβ kinase
Excerpt: as §1, §2

FLT3-ITD-BaF3 = assay: Proliferation of FLT3-ITD-BaF3 cells, CCK8 cell viability assay; assay type: cell-based; details: Mus musculus, 72 hours, stably expressing FLT3/ITD
Excerpt: as §1, §2

BaF3 = assay: Proliferation of BaF3 cells, CCK8 cell viability assay; assay type: cell-based; details: Mus musculus, 72 hours
Excerpt: as §1, §2

Tel-FLT3-BaF3 = assay: Proliferation of Tel-FLT3-BaF3 cells, CCK8 cell viability assay; assay type: cell-based; details: Mus musculus, 72 hours, stably expressing FLT3 kinase
Excerpt: as §1, §2

TEL-PDGFRα-BaF3 = assay: Proliferation of TEL-PDGFRα-BaF3 cells, CCK8 cell viability assay; assay type: cell-based; details: Mus musculus, 72 hours, stably expressing PDGFRα kinase
Excerpt: as §1, §2

TEL-VEGFR2-BaF3 = assay: Proliferation of TEL-VEGFR2-BaF3 cells, CCK8 cell viability assay; assay type: cell-based; details: Mus musculus, 72 hours, stably expressing VEGFR2 kinase
Excerpt: as §1, §2

P210-BaF3 = assay: Proliferation of P210-BaF3 cells, CCK8 cell viability assay; assay type: cell-based; details: Mus musculus, 72 hours, stably expressing BCR-ABL mutant activated kinase
Excerpt: as §1, §2

P210/T315I-BaF3 = assay: Proliferation of P210/T315I-BaF3 cells, CCK8 cell viability assay; assay type: cell-based; details: Mus musculus, 72 hours, stably expressing BCR-ABL/T315I
Excerpt: as §1, §2

Compound | GI50 (Tel-cKit-BaF3) [nM] | GI50 (Tel-cKit/T670I-BaF3) [nM] | GI50 (TEL-PDGFRβ-BaF3) [nM] | GI50 (FLT3-ITD-BaF3) [nM] | GI50 (BaF3) [nM] | GI50 (Tel-FLT3-BaF3) [nM] | GI50 (TEL-PDGFRα-BaF3) [nM] | GI50 (TEL-VEGFR2-BaF3) [nM] | GI50 (P210-BaF3) [nM] | GI50 (P210/T315I-BaF3) [nM]
CC(=O)Nc1cc(Oc2ccc(NC(=O)Cc3cc(Cl)ccc3C(F)(F)F)cc2)ncn1 [Example 2, N-[4-(6-acetylamino-pyrimidin-4-yloxy)-phenyl]-2-(5-chloro-2-trifluoromethyl-phenyl)-acetamide] | 6930 | > 10000 | 156 | 158 | > 10000 | 744 | 102 | 2830 | – | –
CC(=O)Nc1cc(Oc2ccc(CC(=O)Nc3cccc(C(F)(F)F)c3)cc2)ncn1 [Example 33, 2-[4-(6-acetylamino-pyrimidin-4-yloxy)-phenyl]-N-(3-trifluoromethyl-phenyl)-acetamide] | 301 | 81 | 4 | 10 | > 10000 | 4 | 1 | 13 | – | –
CC(=O)Nc1cc(Oc2ccc(CC(=O)Nc3cccc(Cl)c3C(F)(F)F)cc2)ncn1 [Example 35, 2-[4-(6-acetylamino-pyrimidin-4-yloxy)-phenyl]-N-(3-chloro-2-trifluoromethyl-phenyl)-acetamide] | > 10000 | 6600 | 406 | 67 | > 10000 | 925 | 203 | – | > 10000 | –
CC(=O)Nc1cc(Oc2ccc(CC(=O)Nc3ccc(C(F)(F)F)cc3)cc2)ncn1 [Example 36, 2-[4-(6-acetylamino-pyrimidin-4-yloxy)-phenyl]-N-(4-trifluoromethyl-phenyl)-acetamide] | 589 | 36 | 2 | 4 | > 10000 | 17 | < 1 | – | – | –
CC(=O)Nc1cc(Oc2ccc(CC(=O)Nc3ccccc3)cc2)ncn1 [Example 37, 2-[4-(6-acetylamino-pyrimidin-4-yloxy)-phenyl]-N-phenyl-acetamide] | > 10000 | 4030 | 4 | 162 | > 10000 | 2270 | 5 | – | > 10000 | –
CC(=O)Nc1cc(Oc2ccc(CC(=O)Nc3ccc(C)cc3C(F)(F)F)cc2)ncn1 [Example 38, 2-[4-(6-acetylamino-pyrimidin-4-yloxy)-phenyl]-N-(4-methyl-2-trifluoromethyl-phenyl)-acetamide] | > 10000 | 8310 | 466 | 213 | > 10000 | 632 | 35 | 2850 | > 10000 | –
CC(=O)Nc1cc(Oc2ccc(CC(=O)N(C)c3ccc(Br)cc3)cc2)ncn1 [Example 39, 2-[4-(6-acetylamino-pyrimidin-4-yloxy)-phenyl]-N-(4-bromo-phenyl)-N-methyl-acetamide] | 7880 | > 10000 | 134 | 180 | > 10000 | 347 | 57 | 4260 | > 10000 | –
Cc1ccc(NC(=O)Nc2ccc(Oc3cc(N(C)CCO)ncn3)cc2)cc1C(F)(F)F [Example 87, 1-(4-{6-[(2-hydroxy-ethyl)-methyl-amino]-pyrimidin-4-yloxy}-phenyl)-3-(4-methyl-3-trifluoromethyl-phenyl)-urea] | 354 | 8850 | 115 | 58 | 7210 | 169 | 26 | 398 | – | 8490
Cc1ccc(NC(=O)Nc2ccc(Oc3cc(N4CCN[C@H](C)C4)ncn3)cc2)cc1C(F)(F)F [Example 106, (R)-1-(4-methyl-3-(trifluoromethyl)phenyl)-3-(4-((6-(3-methylpiperazin-1-yl)pyrimidin-4-yl)oxy)phenyl)urea] | 1730 | 990 | 136 | 300 | 8920 | 460 | 21 | 350 | – | –
CC(=O)Nc1cc(Oc2ccc(NC(=O)Cc3ccccc3C)cc2)ncn1 [Example 161, N-[4-(6-acetylamino-pyrimidin-4-yloxy)-phenyl]-2-(2-methyl-phenyl)-acetamide] | 7010 | > 10000 | 116 | 74 | > 10000 | 228 | 24 | – | > 10000 | > 10000
CC(=O)Nc1cc(Oc2ccc(NC(=O)Cc3ccc4ccccc4c3)cc2)ncn1 [Example 162, N-[4-(6-acetylamino-pyrimidin-4-yloxy)-phenyl]-2-naphth-2-yl-acetamide] | 313 | 915 | 6 | 19 | > 10000 | 113 | 4 | – | > 10000 | > 10000
CC(=O)Nc1cc(Oc2ccc(NC(=O)Cc3cccc4ccccc34)cc2)ncn1 [Example 163, N-[4-(6-acetylamino-pyrimidin-4-yloxy)-phenyl]-2-naphth-1-yl-acetamide] | 924 | 3270 | 14 | 11 | > 10000 | 25 | 5 | – | > 10000 | 9070
CC(=O)Nc1cc(Nc2ccc(NC(=O)Cc3ccccc3C(F)(F)F)cc2)ncn1 [Example 164, N-[4-(6-acetylamino-pyrimidin-4-ylamino)-phenyl]-2-(2-trifluoromethyl-phenyl)-acetamide] | > 10000 | > 10000 | 938 | 444 | > 10000 | 1410 | 84 | – | > 10000 | > 10000
CC(=O)Nc1cc(Nc2ccc(NC(=O)Cc3cccc(C(F)(F)F)c3)cc2)ncn1 [Example 165, N-[4-(6-acetylamino-pyrimidin-4-ylamino)-phenyl]-2-(3-trifluoromethyl-phenyl)-acetamide] | 462 | 4610 | 12 | 21 | > 10000 | 52 | 1 | – | > 10000 | > 10000
CCCC(=O)Nc1cc(Oc2ccc(NC(=O)Cc3ccccc3C(F)(F)F)cc2)ncn1 [Example 167, N-(6-{4-[2-(2-trifluoromethyl-phenyl)-acetylamino]-phenoxy}-pyrimidin-4-yl)-butyramide] | 9840 | 7940 | 112 | 126 | > 10000 | 513 | 41 | – | > 10000 | > 10000
CC(=O)Nc1cc(Oc2ccc(NC(=O)Cc3ccc(F)c(F)c3)cc2)ncn1 [Example 168, N-[4-(6-acetylamino-pyrimidin-4-yloxy)-phenyl]-2-(3,4-difluoro-phenyl)-acetamide] | 2690 | 4230 | 33 | 42 | > 10000 | 99 | 6 | – | > 10000 | > 10000
CC(=O)Nc1cc(Oc2ccc(NC(=O)Cc3cccc(Cl)c3)cc2)ncn1 [Example 169, N-[4-(6-acetylamino-pyrimidin-4-yloxy)-phenyl]-2-(3-chloro-phenyl)-acetamide] | 1700 | > 10000 | 35 | 24 | > 10000 | 105 | 5 | – | > 10000 | > 10000
CC(=O)Nc1cc(Oc2ccc(NC(=O)C(C)c3ccc(C)cc3)cc2)ncn1 (centres unmarked) [Example 170, N-[4-(6-acetylamino-pyrimidin-4-yloxy)-phenyl]-2-(4-methyl-phenyl)-propanamide] | > 10000 | > 10000 | 925 | 1220 | > 10000 | 3160 | 137 | – | > 10000 | > 10000
